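Protocol summary: plate cells (96-well), add compound at 5 concentrations, incubate 48 h, interpolate endpoints linearly. GI50 marks 50% less growth. Definition used: TGI = concentration required for complete inhibition of growth.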
Assays:
Test in all cases: growth of human tumour cells (NCI), 48 h
ACHN renal = test system: ACHN renal
HCT-15 colon = test system: HCT-15 colon
IGROV1 ovarian = test system: IGROV1 ovarian
K-562 leukemia = test system: K-562 leukemia
M14 melanoma = test system: M14 melanoma
MALME-3M melanoma = test system: MALME-3M melanoma
MDA-MB-231 breast = test system: MDA-MB-231 breast
OVCAR-3 ovarian = test system: OVCAR-3 ovarian
RXF 393 renal = test system: RXF 393 renal
SK-MEL-28 melanoma = test system: SK-MEL-28 melanoma

Row | SMILES | GI50 (ACHN renal) | TGI (ACHN renal) | GI50 (HCT-15 colon) | TGI (HCT-15 colon) | GI50 (IGROV1 ovarian) | TGI (IGROV1 ovarian) | GI50 (K-562 leukemia) | TGI (K-562 leukemia) | GI50 (M14 melanoma) | TGI (M14 melanoma) | GI50 (MALME-3M melanoma) | TGI (MALME-3M melanoma) | GI50 (MDA-MB-231 breast) | TGI (MDA-MB-231 breast) | GI50 (OVCAR-3 ovarian) | TGI (OVCAR-3 ovarian) | GI50 (RXF 393 renal) | TGI (RXF 393 renal) | GI50 (SK-MEL-28 melanoma) | TGI (SK-MEL-28 melanoma)
1 | CC1(C)CC[C@]2(C(=O)NCCNCCN)CC[C@]3(C)C(=CC[C@@H]4[C@@]5(C)CCC(=O)C(C)(C)[C@@H]5CC[C@]43C)[C@@H]2C1 | 1770 nM | 3.2 µM | 1790 nM | 3.29 µM | 1690 nM | 3.11 µM | 2740 nM | > 100 µM | 1870 nM | 3.5 µM | 1830 nM | 3.43 µM | 1820 nM | 3.35 µM | 1850 nM | 3.29 µM | 1570 nM | 2.93 µM | 1750 nM | 3.2 µM
2 | CCCCNC(=O)Oc1ccc(/C(=C(\C)c2ccc(OC)cc2)c2ccc(OCCN3CCCCC3)cc2)cc1 | 3120 nM | 10.7 µM | 1670 nM | 4.52 µM | 2600 nM | 6.46 µM | 1490 nM | 4.65 µM | 1700 nM | 3.23 µM | 1740 nM | 3.31 µM | 2080 nM | 3.83 µM | 2090 nM | 4.51 µM | 2090 nM | 4.3 µM | 1750 nM | 3.4 µM
3 | Oc1ccc(Br)cc1C=NC1CCCCC1 | – | > 100 µM | – | > 100 µM | – | > 100 µM | – | > 100 µM | – | > 100 µM | – | > 100 µM | – | > 100 µM | – | > 100 µM | – | > 100 µM | – | > 100 µM
4 | CN1CCN(c2ccncc2S(=O)(=O)N2CCN(C)CC2)CC1 | – | > 100 µM | – | > 100 µM | – | > 100 µM | – | > 100 µM | – | > 100 µM | – | > 100 µM | – | > 100 µM | – | > 100 µM | – | > 100 µM | – | > 100 µM
5 | C#Cc1cccc(Nc2nc(C)nc3cc(NC(=O)CCl)ccc23)c1 | 2980 nM | 6.67 µM | 687 nM | 2.64 µM | 533 nM | 1.37 µM | 953 nM | 3.65 µM | 2550 nM | 6.17 µM | 465 nM | 1.11 µM | 886 nM | 3.92 µM | 2700 nM | 6.06 µM | 3280 nM | 6.86 µM | 3700 nM | 7.41 µM
6 | COc1ccc2c(c1)c1ccc3c(c1n2C)C(=O)C=CC3=O | – | 14.9 µM | – | 10.9 µM | – | 28.3 µM | – | 4.89 µM | – | 24.3 µM | – | 18.8 µM | – | 12.1 µM | – | 20.5 µM | – | 10.4 µM | – | 22.5 µM
7 | COc1cc(OCCCN2CCCC2)ccc1Nc1ncc(Cl)c(Nc2ccccc2P(C)(C)=O)n1 | 2460 nM | 16.7 µM | 3670 nM | > 46.6 µM | 1410 nM | 22.5 µM | 4430 nM | 28.5 µM | 2580 nM | 12.3 µM | 6060 nM | 22.6 µM | 1560 nM | 11.7 µM | 2750 nM | 12 µM | 810 nM | 3.23 µM | 6340 nM | 26.6 µM

— PubChem BioAssay (NCI)
